Target: Urease (Canavalia ensiformis) (UniProt P07374)
Test: Inhibition of Canavalia ensiformis (jack bean) urease assessed as ammonia production using urea as substrate at 0.1 uM after 15 min by indophenol method

Chain of Urease (Canavalia ensiformis) (P07374 whole entry, looked up): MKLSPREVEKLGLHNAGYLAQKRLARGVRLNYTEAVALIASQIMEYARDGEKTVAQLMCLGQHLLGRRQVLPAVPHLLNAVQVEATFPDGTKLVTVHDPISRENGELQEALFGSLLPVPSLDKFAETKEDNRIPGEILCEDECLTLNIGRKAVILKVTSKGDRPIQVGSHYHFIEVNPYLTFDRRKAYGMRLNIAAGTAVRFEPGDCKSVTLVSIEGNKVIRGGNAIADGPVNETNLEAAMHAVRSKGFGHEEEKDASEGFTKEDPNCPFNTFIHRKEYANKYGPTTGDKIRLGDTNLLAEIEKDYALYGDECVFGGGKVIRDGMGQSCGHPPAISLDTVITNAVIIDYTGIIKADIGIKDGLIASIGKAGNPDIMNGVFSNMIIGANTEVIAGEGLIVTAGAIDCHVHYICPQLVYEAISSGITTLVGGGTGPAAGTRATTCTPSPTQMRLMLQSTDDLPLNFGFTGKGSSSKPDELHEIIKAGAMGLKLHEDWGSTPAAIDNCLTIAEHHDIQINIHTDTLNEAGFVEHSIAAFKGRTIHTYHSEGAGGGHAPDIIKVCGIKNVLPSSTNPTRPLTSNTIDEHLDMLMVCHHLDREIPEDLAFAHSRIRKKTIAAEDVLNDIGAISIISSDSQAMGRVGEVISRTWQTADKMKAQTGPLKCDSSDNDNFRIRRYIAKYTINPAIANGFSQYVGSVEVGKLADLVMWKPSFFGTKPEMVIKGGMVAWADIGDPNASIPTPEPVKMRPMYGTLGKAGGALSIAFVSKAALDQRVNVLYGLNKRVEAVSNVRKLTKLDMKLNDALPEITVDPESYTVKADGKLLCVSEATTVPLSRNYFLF

Row | Structure (SMILES) | inhibition
1 | CC1=CC2=NC(=O)/C(=C\Nc3ccc(C)cn3)C(=O)N2C=C1 | 11%
2 | CC1=CC2=NC(=O)/C(=C\Nc3ccc(F)cc3)C(=O)N2C=C1 | 6%
3 | CC1=CC2=NC(=O)/C(=C\NNC(=O)c3ccc(Br)cc3)C(=O)N2C=C1 | -2%
4 | CC1=CC2=NC(=O)/C(=C\Nc3ccc([N+](=O)[O-])cn3)C(=O)N2C=C1 | 6%
5 | CC1=CC2=NC(=O)/C(=C\NNC(=O)c3ccc(Cl)cc3)C(=O)N2C=C1 | -2%
6 | CC1=CC2=NC(=O)/C(=C\Nc3c(C)cc(C)cc3C)C(=O)N2C=C1 | -6%
7 | CC1=CC2=NC(=O)CC(=O)N2C=C1 | 6%
8 | CC1=CC2=NC(=O)/C(=C\Nc3ccccc3F)C(=O)N2C=C1 | 10%
9 | CC(=O)c1ccc(N/C=C2\C(=O)N=C3C=C(C)C=CN3C2=O)cc1 | -2%
10 | CC1=CC2=NC(=O)/C(=C\Nc3ccccc3S)C(=O)N2C=C1 | 28%
11 | CC(=O)c1ccccc1N/C=C1\C(=O)N=C2C=C(C)C=CN2C1=O | 19%
12 | CC1=CC2=NC(=O)/C(=C\NNC(=O)c3ccc([N+](=O)[O-])cc3)C(=O)N2C=C1 | 21%
13 | CC(=O)c1cccc(N/C=C2\C(=O)N=C3C=C(C)C=CN3C2=O)c1 | 3%
14 | CC1=CC2=NC(=O)/C(=C\NNC(=O)c3ccc(O)cc3)C(=O)N2C=C1 | -1%
15 | CC1=CC2=NC(=O)/C(=C\Nc3cc(C)ccn3)C(=O)N2C=C1 | 6%
16 | NC(N)=S | 8%
17 | CC1=CC2=NC(=O)/C(=C\NNC(=O)c3ccccc3)C(=O)N2C=C1 | 1%

Target: Urease (Canavalia ensiformis) (UniProt P07374)
Test: Inhibition of Canavalia ensiformis (jack bean) urease assessed as ammonia production using urea as substrate at 1 uM after 15 min by indophenol method

Row | Structure (SMILES) | inhibition
18 | CC1=CC2=NC(=O)/C(=C\Nc3ccc(C)cn3)C(=O)N2C=C1 | 24%
19 | CC1=CC2=NC(=O)/C(=C\Nc3ccc(F)cc3)C(=O)N2C=C1 | 14%
20 | CC1=CC2=NC(=O)/C(=C\NNC(=O)c3ccc(Br)cc3)C(=O)N2C=C1 | 3%
21 | CC1=CC2=NC(=O)/C(=C\Nc3ccc([N+](=O)[O-])cn3)C(=O)N2C=C1 | 23%
22 | CC1=CC2=NC(=O)/C(=C\NNC(=O)c3ccc(Cl)cc3)C(=O)N2C=C1 | 6%
23 | CC1=CC2=NC(=O)/C(=C\Nc3c(C)cc(C)cc3C)C(=O)N2C=C1 | -1%
24 | CC1=CC2=NC(=O)CC(=O)N2C=C1 | 12%
25 | CC1=CC2=NC(=O)/C(=C\Nc3ccccc3F)C(=O)N2C=C1 | 26%
26 | CC(=O)c1ccc(N/C=C2\C(=O)N=C3C=C(C)C=CN3C2=O)cc1 | 1%
27 | CC1=CC2=NC(=O)/C(=C\Nc3ccccc3S)C(=O)N2C=C1 | 60%
28 | CC(=O)c1ccccc1N/C=C1\C(=O)N=C2C=C(C)C=CN2C1=O | 32%
29 | CC1=CC2=NC(=O)/C(=C\NNC(=O)c3ccc([N+](=O)[O-])cc3)C(=O)N2C=C1 | 54%
30 | CC(=O)c1cccc(N/C=C2\C(=O)N=C3C=C(C)C=CN3C2=O)c1 | 8%
31 | CC1=CC2=NC(=O)/C(=C\NNC(=O)c3ccc(O)cc3)C(=O)N2C=C1 | 7%
32 | CC1=CC2=NC(=O)/C(=C\Nc3cc(C)ccn3)C(=O)N2C=C1 | 16%
33 | NC(N)=S | 15%
34 | CC1=CC2=NC(=O)/C(=C\NNC(=O)c3ccccc3)C(=O)N2C=C1 | 6%

Target: Urease (Canavalia ensiformis) (UniProt P07374)
Test: Inhibition of Canavalia ensiformis (jack bean) urease assessed as ammonia production using urea as substrate at 100 uM after 15 min by indophenol method

Row | Structure (SMILES) | inhibition
35 | CC1=CC2=NC(=O)/C(=C\Nc3ccc(C)cn3)C(=O)N2C=C1 | 57%
36 | CC1=CC2=NC(=O)/C(=C\Nc3ccc(F)cc3)C(=O)N2C=C1 | 35%
37 | CC1=CC2=NC(=O)/C(=C\NNC(=O)c3ccc(Br)cc3)C(=O)N2C=C1 | 57%
38 | CC1=CC2=NC(=O)/C(=C\Nc3cccc(F)c3)C(=O)N2C=C1 | 28%
39 | CC1=CC2=NC(=O)/C(=C\Nc3ccc([N+](=O)[O-])cn3)C(=O)N2C=C1 | 48%
40 | CC1=CC2=NC(=O)/C(=C\NNC(=O)c3ccc(Cl)cc3)C(=O)N2C=C1 | 43%
41 | CC1=CC2=NC(=O)/C(=C\Nc3c(C)cc(C)cc3C)C(=O)N2C=C1 | 0.2%
42 | CC1=CC2=NC(=O)CC(=O)N2C=C1 | 39%
43 | CC1=CC2=NC(=O)/C(=C\Nc3ccccc3F)C(=O)N2C=C1 | 57%
44 | CC(=O)c1ccc(N/C=C2\C(=O)N=C3C=C(C)C=CN3C2=O)cc1 | 18%
45 | CC1=CC2=NC(=O)/C(=C\Nc3ccccc3S)C(=O)N2C=C1 | 97%
46 | CC(=O)c1ccccc1N/C=C1\C(=O)N=C2C=C(C)C=CN2C1=O | 69%
47 | CC1=CC2=NC(=O)/C(=C\NNC(=O)c3ccc([N+](=O)[O-])cc3)C(=O)N2C=C1 | 87%
48 | CC(=O)c1cccc(N/C=C2\C(=O)N=C3C=C(C)C=CN3C2=O)c1 | 45%
49 | CC1=CC2=NC(=O)/C(=C\NNC(=O)c3ccc(O)cc3)C(=O)N2C=C1 | 39%
50 | CC1=CC2=NC(=O)/C(=C\Nc3cc(C)ccn3)C(=O)N2C=C1 | 33%
51 | NC(N)=S | 94%
52 | CC1=CC2=NC(=O)/C(=C\NNC(=O)c3ccccc3)C(=O)N2C=C1 | 26%

Target: Urease (Canavalia ensiformis) (UniProt P07374)
Test: Inhibition of Canavalia ensiformis (jack bean) urease assessed as ammonia production using urea as substrate at 10 uM after 15 min by indophenol method

Row | Structure (SMILES) | inhibition
53 | CC1=CC2=NC(=O)/C(=C\Nc3ccc(C)cn3)C(=O)N2C=C1 | 48%
54 | CC1=CC2=NC(=O)/C(=C\Nc3ccc(F)cc3)C(=O)N2C=C1 | 21%
55 | CC1=CC2=NC(=O)/C(=C\NNC(=O)c3ccc(Br)cc3)C(=O)N2C=C1 | 23%
56 | CC1=CC2=NC(=O)/C(=C\Nc3cccc(F)c3)C(=O)N2C=C1 | 3%
57 | CC1=CC2=NC(=O)/C(=C\Nc3ccc([N+](=O)[O-])cn3)C(=O)N2C=C1 | 36%
58 | CC1=CC2=NC(=O)/C(=C\NNC(=O)c3ccc(Cl)cc3)C(=O)N2C=C1 | 14%
59 | CC1=CC2=NC(=O)/C(=C\Nc3c(C)cc(C)cc3C)C(=O)N2C=C1 | -8%
60 | CC1=CC2=NC(=O)CC(=O)N2C=C1 | 26%
61 | CC1=CC2=NC(=O)/C(=C\Nc3ccccc3F)C(=O)N2C=C1 | 44%
62 | CC(=O)c1ccc(N/C=C2\C(=O)N=C3C=C(C)C=CN3C2=O)cc1 | 5%
63 | CC1=CC2=NC(=O)/C(=C\Nc3ccccc3S)C(=O)N2C=C1 | 73%
64 | CC(=O)c1ccccc1N/C=C1\C(=O)N=C2C=C(C)C=CN2C1=O | 54%
65 | CC1=CC2=NC(=O)/C(=C\NNC(=O)c3ccc([N+](=O)[O-])cc3)C(=O)N2C=C1 | 60%
66 | CC(=O)c1cccc(N/C=C2\C(=O)N=C3C=C(C)C=CN3C2=O)c1 | 28%
67 | CC1=CC2=NC(=O)/C(=C\NNC(=O)c3ccc(O)cc3)C(=O)N2C=C1 | 22%
68 | CC1=CC2=NC(=O)/C(=C\Nc3cc(C)ccn3)C(=O)N2C=C1 | 20%
69 | NC(N)=S | 21%
70 | CC1=CC2=NC(=O)/C(=C\NNC(=O)c3ccccc3)C(=O)N2C=C1 | 13%

Target: Urease (Canavalia ensiformis) (UniProt P07374)
Test: Inhibition of Canavalia ensiformis (jack bean) urease assessed as ammonia production using urea as substrate at 0.01 uM after 15 min by indophenol method

Row | Structure (SMILES) | inhibition
71 | CC1=CC2=NC(=O)/C(=C\Nc3ccc(C)cn3)C(=O)N2C=C1 | 3%
72 | CC1=CC2=NC(=O)/C(=C\Nc3ccc(F)cc3)C(=O)N2C=C1 | 1%
73 | CC1=CC2=NC(=O)/C(=C\NNC(=O)c3ccc(Br)cc3)C(=O)N2C=C1 | -8%
74 | CC1=CC2=NC(=O)/C(=C\Nc3ccc([N+](=O)[O-])cn3)C(=O)N2C=C1 | 3%
75 | CC1=CC2=NC(=O)/C(=C\NNC(=O)c3ccc(Cl)cc3)C(=O)N2C=C1 | -4%
76 | CC1=CC2=NC(=O)CC(=O)N2C=C1 | 1%
77 | CC1=CC2=NC(=O)/C(=C\Nc3ccccc3F)C(=O)N2C=C1 | 3%
78 | CC(=O)c1ccc(N/C=C2\C(=O)N=C3C=C(C)C=CN3C2=O)cc1 | -3%
79 | CC1=CC2=NC(=O)/C(=C\Nc3ccccc3S)C(=O)N2C=C1 | 22%
80 | CC(=O)c1ccccc1N/C=C1\C(=O)N=C2C=C(C)C=CN2C1=O | 11%
81 | CC1=CC2=NC(=O)/C(=C\NNC(=O)c3ccc([N+](=O)[O-])cc3)C(=O)N2C=C1 | 6%
82 | CC(=O)c1cccc(N/C=C2\C(=O)N=C3C=C(C)C=CN3C2=O)c1 | -1%
83 | CC1=CC2=NC(=O)/C(=C\NNC(=O)c3ccc(O)cc3)C(=O)N2C=C1 | -5%
84 | CC1=CC2=NC(=O)/C(=C\Nc3cc(C)ccn3)C(=O)N2C=C1 | 1%
85 | NC(N)=S | 8%
86 | CC1=CC2=NC(=O)/C(=C\NNC(=O)c3ccccc3)C(=O)N2C=C1 | -1%
